Experimental findings from patent publication US20040058876A1, “Secondary binding site of dipeptidyl peptidase IV (DP IV)” (priority 2002, published 2004) are described below.

For data set [1], the system named is DP IV. Description: Determination of the half-life (t1/2) of DP IV-catalyzed peptide truncation by MALDI-TOF MS. As to conditions: truncation by DP IV. How it is done: (§1) The degradation fate of peptides was measured by monitoring the signal intensity of the pseudomolecular ion peaks of parent peptides and N-terminal shorted peptides versus time when incubated with 40 mU procine DP IV, recombinant human DP IV or serum DP IV activity. […] As control served the preincubation of DP IV with 0.01M Tris-buffer (Sigma-Aldrich, Deisenhofen, Germany). The mass spectrometer employed was a Hewlett-Packard G2025 model with a linear time of flight analyzer; samples (4 μL) were mixed 1:1 v/v with matrix (44 mg diammonium-hydrogen-citrate and 30 mg 2′,6′-dihydroxyacetophenone in 1 ml aqueous solution containing 50% acetonitrile and 0.05% trifluoroacetic acid; Sigma-Aldrich), transferred to a probe tip and immediately evaporated using the Hewlett-Packard G2024A (Hewlett-Packard, Waldbronn, Germany) sample preparation vacuum chamber. 250 single laser-shot spectra were accumulated. This method of monitoring biodegradation has been validated and allows the general comparison of half-degradation times (t1/2) under various conditions.
(§2) The t1/2-calculation followed this procedure:
(§3) The height of the substrate peak was measured and set as 100% at time=0. During the reaction course the sum of substrate and product peak height were set as 100% and the percentage of the remaining substrate peak (also expressed as relative concentration) was determined. Diagrammed relative substrate concentration versus time t1/2 can be calculated based on first order exponential decay reaction course. [formula]

Test in data set [2]: as above
As to the method: as §1, §2, §3

For data set [3], the target named is T1, porcine DP IV (Sus scrofa, UniProt P22411).
T1 construct: purified DP IV from human, from porcine kidney, of recombinant human DP IV; from tissue; host or cells: porcine kidney
Briefly: MALDI-TOF approach: Ki of TFTSDY on DP IV-catalyzed peptide truncation. The data set is classed as biochemical. The settings on record: K1, inhibitory effect on DP IV-catalyzed peptide truncation. How it is done:
(§4) 250 single laser-shot spectra were accumulated.
(§5) In order to investigate directly the influence of TFTSDY on the DP IV-catalyzed peptide hydrolysis the MALDI-TOF assay was used.
(§6) As described before (determination of t1/2) DP IV and TFTSDY were preincubated and the reaction was started by adding the enzyme/hexapeptide mixture to substrate/buffer mix. The control reaction mixture consisted of buffer, enzyme and substrate. From the curves of the first order exponential the initial rate (v1) for the control and the reversible inhibited reaction was calculated.
(§7) For the uninfluenced reaction the Michaelis-Menten-equation was used.
(§8) Vi was calculated from plotting the relative substrate concentration versus time.
(§9) Km is given, also the substrate concentration. [formula]
(§10) For the reversible inhibited reaction the following reaction was used to calculate Kl: [formula]

Data set [4] has as its target T2, rec. human DP IV (Homo sapiens, UniProt P27487).
T2 construct: His6 (N); made in house; host or cells: Pichia pastoris X-33 (vector pPICαC, secreted into the medium)
The data set is described as above. The data set is classed as biochemical. The settings on record: K1, inhibitory effect on DP IV-catalyzed peptide truncation. How it is done: as §4, §5, §6, §7, §8, §9, §10

Data set [5] deals with DP IV. Briefly: Peptide truncation by DP IV after preincubation with TFTSDY (MALDI-TOF). It counts as biochemical. How it is done:
as §4, §5, §6

Data set [6] deals with T3, mu 15: recombinant human DP IV, mutation R560A (Homo sapiens, UniProt P27487, R560A).
T3 construct: His6 (N); made in house; host or cells: Pichia pastoris X-33 (vector pPICαC, secreted into the medium)
Description: Determination of Ki in competition to standard substrate GP-4NA. The settings on record: mu 15 DP IV, competition to GP-4NA. It counts as biochemical. As to the method: (§11) In order to measure the inhibition constant Ki a photometric assay was used The peptides were measured as competitors of the standard substrate GP-4-Nitroanilide. Three different substrate concentrations (0.4 mM to 0.05 mM) were combined with 8 different competitor concentrations (0.5 mM to 2 μM). […] Experiments were carried out under standard conditions: 30° C. in pH 7.6 40 mM HEPES (Sigma-Aldrich) buffer. Nitroaniline production was monitored using a HTS 7000+ microplate reader (PerkinElmer, Überlingen, Germany).
(§12) For a reversible competitive inhibition is to assumed: [formula]

For data set [7], the target named is T4, mu 16: recombinant human DP IV, mutation W629A (Homo sapiens, UniProt P27487, W629A).
T4 construct: His6 (N); made in house; host or cells: Pichia pastoris X-33 (vector pPICαC, secreted into the medium)
The data set is described as above. The data set is classed as biochemical. As to conditions: mu 16 DP IV, competition to GP-4NA. How it is done:
as §11, §12

In data set [8] the target is T5, rh wt: recombinant human DP IV, wild type (Homo sapiens, UniProt P27487).
T5 construct: His6 (N); made in house; host or cells: Pichia pastoris X-33 (vector pPICαC, secreted into the medium)
Described as above. The data set is classed as biochemical. The settings on record: competition to GP-4NA. How it is done:
as §11, §12

Like-named read-outs stand apart in the source and are kept apart here. Residues, ends and D or L forms follow the SMILES beside them.

T2 sequence (P27487 37-766): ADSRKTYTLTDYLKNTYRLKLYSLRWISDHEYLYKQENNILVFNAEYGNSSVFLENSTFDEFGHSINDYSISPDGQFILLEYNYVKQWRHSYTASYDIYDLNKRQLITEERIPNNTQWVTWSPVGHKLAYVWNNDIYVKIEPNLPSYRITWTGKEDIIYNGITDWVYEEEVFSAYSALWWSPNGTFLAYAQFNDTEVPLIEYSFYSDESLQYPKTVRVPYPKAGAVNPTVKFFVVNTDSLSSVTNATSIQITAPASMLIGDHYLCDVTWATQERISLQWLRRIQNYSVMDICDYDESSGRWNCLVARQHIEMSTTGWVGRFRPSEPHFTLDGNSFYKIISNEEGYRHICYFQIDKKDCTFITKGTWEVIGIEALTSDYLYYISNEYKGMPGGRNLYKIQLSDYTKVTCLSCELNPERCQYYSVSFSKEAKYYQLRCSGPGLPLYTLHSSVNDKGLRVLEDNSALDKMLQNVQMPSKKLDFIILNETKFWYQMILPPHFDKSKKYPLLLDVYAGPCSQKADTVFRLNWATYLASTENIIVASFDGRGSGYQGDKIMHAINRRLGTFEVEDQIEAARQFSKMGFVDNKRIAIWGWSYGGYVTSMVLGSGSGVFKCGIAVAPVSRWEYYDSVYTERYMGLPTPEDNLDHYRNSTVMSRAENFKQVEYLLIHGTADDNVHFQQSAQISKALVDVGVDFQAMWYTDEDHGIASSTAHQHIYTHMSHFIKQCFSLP
T1 sequence (P22411 whole entry): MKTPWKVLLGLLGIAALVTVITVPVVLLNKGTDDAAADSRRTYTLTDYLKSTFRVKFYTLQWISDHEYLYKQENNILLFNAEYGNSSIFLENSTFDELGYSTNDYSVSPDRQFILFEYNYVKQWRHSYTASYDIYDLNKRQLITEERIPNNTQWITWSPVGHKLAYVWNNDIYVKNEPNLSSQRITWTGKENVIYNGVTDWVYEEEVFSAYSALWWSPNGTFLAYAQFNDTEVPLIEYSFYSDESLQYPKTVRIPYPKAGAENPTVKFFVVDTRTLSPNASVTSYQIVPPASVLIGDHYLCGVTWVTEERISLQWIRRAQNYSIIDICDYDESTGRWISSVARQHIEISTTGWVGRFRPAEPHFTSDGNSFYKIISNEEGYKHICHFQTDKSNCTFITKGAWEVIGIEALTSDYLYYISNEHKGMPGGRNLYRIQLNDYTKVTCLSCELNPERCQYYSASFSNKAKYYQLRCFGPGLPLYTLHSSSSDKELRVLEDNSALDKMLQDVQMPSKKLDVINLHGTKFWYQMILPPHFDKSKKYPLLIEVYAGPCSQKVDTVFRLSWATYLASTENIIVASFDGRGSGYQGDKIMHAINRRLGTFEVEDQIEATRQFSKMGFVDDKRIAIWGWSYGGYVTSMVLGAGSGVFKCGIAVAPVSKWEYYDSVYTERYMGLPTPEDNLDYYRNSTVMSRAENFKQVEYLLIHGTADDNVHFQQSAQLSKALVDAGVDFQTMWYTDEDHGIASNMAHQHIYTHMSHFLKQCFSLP
T4 sequence (P27487 37-766 W629A): as the sequence (P27487 37-766) above, with W593A counted along it
T3 sequence (P27487 37-766 R560A): as the sequence (P27487 37-766) above, with R524A counted along it
T5 sequence (P27487 37-766): as the sequence (P27487 37-766) above

`C[C@@H](O)[C@H](NC(=O)CNC(=O)[C@H](CCC(=O)O)NC(=O)CNC(=O)[C@@H](N)Cc1ccc(O)cc1)C(=O)N[C@@H](Cc1ccccc1)C(=O)O` [G^2GIP1-6] (H-YGEGTF-OH): the half-life – broadly, how long it takes for the measured level to halve – in data set [1] was “no degradation”.

For `CC[C@H](C)[C@H](NC(=O)[C@H](CO)NC(=O)[C@H](Cc1ccc(O)cc1)NC(=O)[C@H](CC(=O)O)NC(=O)[C@H](CO)NC(=O)[C@@H](NC(=O)[C@H](Cc1ccccc1)NC(=O)[C@@H](NC(=O)CNC(=O)[C@H](CCC(=O)O)NC(=O)CNC(=O)[C@@H](N)Cc1ccc(O)cc1)[C@@H](C)O)[C@@H](C)CC)C(=O)N[C@@H](C)C(=O)N[C@@H](CCSC)C(=O)N[C@@H](CC(=O)O)C(=O)N[C@@H](CCCCN)C(=O)N[C@H](C(=O)N[C@@H](Cc1c[nH]cn1)C(=O)N[C@@H](CCC(N)=O)C(=O)N[C@@H](CCC(N)=O)C(=O)N[C@@H](CC(=O)O)C(=O)N[C@@H](Cc1ccccc1)C(=O)N[C@H](C(=O)N[C@@H](CC(N)=O)C(=O)N[C@@H](Cc1c[nH]c2ccccc12)C(=O)N[C@@H](CC(C)C)C(=O)N[C@@H](CC(C)C)C(=O)N[C@@H](C)C(=O)N[C@@H](CCC(N)=O)C(=O)N[C@@H](CCCCN)C(=O)O)C(C)C)[C@@H](C)CC` [G^2GIP1-30], the half-life in data set [2] is 2.5 h.

On to `CC[C@H](C)[C@H](NC(=O)[C@H](CO)NC(=O)[C@H](Cc1ccc(O)cc1)NC(=O)[C@H](CC(=O)O)NC(=O)[C@H](CO)NC(=O)[C@@H](NC(=O)[C@H](Cc1ccccc1)NC(=O)[C@@H](NC(=O)CNC(=O)[C@H](CCC(=O)O)NC(=O)[C@H](CO)NC(=O)[C@@H](N)Cc1ccc(O)cc1)[C@@H](C)O)[C@@H](C)CC)C(=O)N[C@@H](C)C(=O)N[C@@H](CCSC)C(=O)N[C@@H](CC(=O)O)C(=O)N[C@@H](CCCCN)C(=O)N[C@H](C(=O)N[C@@H](Cc1c[nH]cn1)C(=O)N[C@@H](CCC(N)=O)C(=O)N[C@@H](CCC(N)=O)C(=O)N[C@@H](CC(=O)O)C(=O)N[C@@H](Cc1ccccc1)C(=O)N[C@H](C(=O)N[C@@H](CC(N)=O)C(=O)N[C@@H](Cc1c[nH]c2ccccc12)C(=O)N[C@@H](CC(C)C)C(=O)N[C@@H](CC(C)C)C(=O)N[C@@H](C)C(=O)N[C@@H](CCC(N)=O)C(=O)N[C@@H](CCCCN)C(=O)O)C(C)C)[C@@H](C)CC` [S^2GIP1-30], for which the half-life in data set [2] was 2.29 h.

Regarding `C[C@@H](O)[C@H](N)C(=O)N[C@@H](Cc1ccccc1)C(=O)N[C@H](C(=O)N[C@@H](CO)C(=O)N[C@@H](CC(=O)O)C(=O)N[C@@H](Cc1ccc(O)cc1)C(=O)O)[C@@H](C)O` [TFTSDY] (H-TFTSDY-OH; N-terminus and C-terminus assumed), the Ki (commonly a dissociation constant, usually derived from enzyme kinetics or from competition with a known ligand) was 65.9 µM in data set [3] (substrate GIP); 13.7 µM in data set [3] (substrate GLP-1); 17.2 µM in data set [3] (substrate NPY); at least 12300 µM in data set [3] (substrate RANTES1-15); 6.8 µM in data set [3] (substrate glucagon); 14 µM in data set [4] (substrate GIP). In addition, the Ki in data set [4] (substrate PACAP-27) stood at 26.7 µM; in data set [4] (substrate PACAP-38) it was 2.8 µM; in data set [4] (substrate glucagon), 3.7 µM. Moreover, the “influence on affinity of oligopeptides such as GIP, VIP, glucagon” value in data set [5] (DP IV preincubated with TFTSDY) was “considerably reduced”. Further, the “influence on binding and hydrolysis of small dipeptide substrates” value in data set [5] (DP IV preincubated with TFTSDY) is “only slightly influenced”. The “effect on truncation of substrate by DP IV” value in data set [5] (substrate Rantes1-15, 160 μM TFTSDY) is on record as “No differences”.

In the case of `CC(C)[C@H](NC(=O)[C@@H](N)Cc1ccc(O)cc1)C(=O)N[C@@H](CCC(=O)O)C(=O)NCC(=O)N[C@H](C(=O)N[C@@H](Cc1ccccc1)C(=O)O)[C@@H](C)O` [V^2GIP1-6] (H-YVEGTF-OH), the half-life result in data set [1] is given as “no degradation”.

`CC[C@H](C)[C@H](NC(=O)[C@H](CO)NC(=O)[C@H](Cc1ccc(O)cc1)NC(=O)[C@H](CC(=O)O)NC(=O)[C@H](CO)NC(=O)[C@@H](NC(=O)[C@H](Cc1ccccc1)NC(=O)[C@@H](NC(=O)CNC(=O)[C@H](CCC(=O)O)NC(=O)[C@@H](NC(=O)[C@@H](N)Cc1ccc(O)cc1)C(C)C)[C@@H](C)O)[C@@H](C)CC)C(=O)N[C@@H](C)C(=O)N[C@@H](CCSC)C(=O)N[C@@H](CC(=O)O)C(=O)N[C@@H](CCCCN)C(=O)N[C@H](C(=O)N[C@@H](Cc1c[nH]cn1)C(=O)N[C@@H](CCC(N)=O)C(=O)N[C@@H](CCC(N)=O)C(=O)N[C@@H](CC(=O)O)C(=O)N[C@@H](Cc1ccccc1)C(=O)N[C@H](C(=O)N[C@@H](CC(N)=O)C(=O)N[C@@H](Cc1c[nH]c2ccccc12)C(=O)N[C@@H](CC(C)C)C(=O)N[C@@H](CC(C)C)C(=O)N[C@@H](C)C(=O)N[C@@H](CCC(N)=O)C(=O)N[C@@H](CCCCN)C(=O)O)C(C)C)[C@@H](C)CC` [V^2GIP1-30] gave a half-life in data set [2] of 4.97 h.

With `C[C@H](NC(=O)[C@@H](N)Cc1ccc(O)cc1)C(=O)N[C@@H](CCC(=O)O)C(=O)N[C@@H](CO)C(=O)N[C@H](C(=O)N[C@@H](Cc1ccccc1)C(N)=O)[C@@H](C)O` [YAESTF amide] (H-YAESTF-NH2; N-terminus assumed), the Ki is 1.14 µM in data set [6] (read-out: Ki) and 1.06 µM in data set [7] (read-out: Ki).

Turning to “Glucagon (1-14): glucagon fragment 1-14 (HSQGTFTSDYSKYL; Glucagon; UniProt P01275 53-66, looked up, fragment) [reference compound]”, the Ki entry in data set [8], in data set [6] and in data set [7] was “no inhibition” in each case.
